In US20260176289A1, “SMALL MOLECULE INHIBITORS OF KRAS PROTEINS” (Merck Sharp & Dohme LLC, priority 2022, published 2026):

Tested on: SW620 cells
Experiment: Cellular phospho-ERK assay, SW620 cells (homozygous KRAS-G12V)
Type: cell-based
Settings: Homo sapiens, SW-620, KRAS-G12V, 2 hours, read-out: SW620 pERK IC50
In short: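 Inhibition of ERK phosphorylation was determined after treating attached cells with compound for 2 h; top concentration 30 μM, serial 1:3 dilution. Each well's p-ERK:total ERK ratio, read by SureFire Ultra, was fitted with a four-parameter model for IC50.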

Molecule `C#Cc1c(F)ccc2cc(O)cc(-c3nccc4c5c(N6CCOC[C@@](C)(O)C6)nc(OC[C@@]67CCCN6C[C@H](F)C7)nc5n(C)c34)c12` [Ex-18, (S)-4-(8-(8-ethynyl-7-fluoro-3-hydroxynaphthalen-1-yl)-2-(((2R,7aS)-2-fluorotetrahydro-1H-pyrrolizin-7a(5H)-yl)methoxy)-9-methyl-9H-pyrido[4′,3′:4,5]pyrrolo[2,3-d]pyrimidin-4-yl)-6-methyl-1,4-oxazepan-6-ol] has an IC50 of 13.1 nM.
